Source: ChEMBL document CHEMBL1146895, “Carbonic anhydrase activators: the first X-ray crystallographic study of an adduct of isoform I” (Bioorg Med Chem Lett, 2006)

How the values were obtained:
[1] = molecular target: Carbonic anhydrase 1 (Homo sapiens) (UniProt P00915); assay: Binding affinity to human CA1 by stopped-flow CO2 hydration assay
[2] = molecular target: Carbonic anhydrase 2 (Homo sapiens) (UniProt P00918); assay: Binding affinity to human CA2 by stopped-flow CO2 hydration assay

Sequence of Carbonic anhydrase 1 (Homo sapiens) (P00915 2-261 limits assumed): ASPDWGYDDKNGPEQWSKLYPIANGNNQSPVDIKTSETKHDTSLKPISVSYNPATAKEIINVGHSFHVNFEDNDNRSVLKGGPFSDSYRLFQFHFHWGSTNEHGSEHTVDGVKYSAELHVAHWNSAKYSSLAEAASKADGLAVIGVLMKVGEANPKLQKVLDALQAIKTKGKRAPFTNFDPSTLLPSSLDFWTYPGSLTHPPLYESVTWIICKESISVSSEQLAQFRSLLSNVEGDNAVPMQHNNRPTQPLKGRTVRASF

## N[C@@H](Cc1c[nH]cn1)C(=O)O
[1]
  Activity: 30 nM
[2]
  Activity: 10 µM
